A short description of data set [1]: Stability in mouse liver microsome. The format is ADME. Conditions: microsomes. (Liver microsomes are a subcellular fraction often used to study metabolism.)
A short description of data set [2]: Permeability across apical to basal side in human Caco-2 cells. The format is ADME, cell-based. In general terms: Caco-2 monolayers are a common model of the intestinal barrier.

Regarding `O=S(=O)(Nc1ccc2ccccc2n1)c1ccccc1`, in data set [1], the Stability result is “Stable”. In addition, the permeability result in data set [2] is on record as “Permeable”.
